Reference: paper PMC8173604 (Cell, 2021)
Entries after “also recorded” stand apart in the source; their conditions may differ. Where two headings read alike, the source gives them in different places.

Experiments:
[1] = tested on: CD8+ T cells of HLA-B*07:02 subjects; type: cell-based, human
[2] = target: HLA-A*02:01 (Homo sapiens, UniProt P04439, D140Y/D185E/D98H/E176V/E277Q/G131W/G231S/I119V/I121R/I166T/I218V/L300P/L318F/N151K/N90K/P208A/P217A/Q86G/Q94H/R138H/R169H/T345S); type: binding
[3] = tested on: CD8+ T cells of HLA-A*02:01 subjects; type: cell-based, human
[4] = target: HLA-A*26:01 (Homo sapiens, UniProt P04439, A114D/A173T/A270S/D101N/D185E/E277Q/E87N/F33Y/G231S/I121R/I218V/K168Q/L180W/L300P/L318F/P208A/P217A/Q86R/Q94H/R138Q/S129P/T187R/T323A/T345S/V100A/V358M); type: binding
[5] = tested on: CD8+ T cells of convalescent COVID-19 individuals; conditions: ref Tarke et al., 2020; cited from earlier work

Question: Which “CD8+ T cell response (in words)” value [1] does the source give for RPPIFIRRL here?
Answer: Its value is “positive reactivity”.

Question: Which “binding to A*02:01 (in words)” value [2] does the source give for ELPDEFVVVTV here?
Answer: The value was “binds”.

Question: And the “CD8+ T cell response (in words)” value ([3]; nine HLA-A*02:01 samples (seven COVID-19 convalescent and two unexposed))?
Answer: The value was “top five reactive peptides; also recorded: strongest CD8+ response among all tested HLA-I peptides”.

Question: What about the “binding to A*26:01 (in words)” value [4] of the same sequence?
Answer: Its value is “binds”.

Question: Which “CD8+ T cell response (in words)” value [3] does the source give for KLWAQCVQL [reference compound] here?
Answer: The value was “weak responses”.

Question: Which “T cell responses in convalescent COVID-19 individuals expressing the predicted alleles” value [5] does the source give for QLTPTWRVY here?
Answer: The value was “elicit T cell responses”.
